The target of assay [1] is T1, full-length proMMP9(1-707) (SEQ ID NO:1) (Homo sapiens, UniProt P14780, R574P).
T1 construct: made in house; host or cells: HEK293 (proMMP9, secreted); E. coli (MMP3)
Put plainly: proMMP9/MMP3 P126 Activation Assay. Format: biochemical. The conditions noted are these: 20 nM proMMP9, 20 nM MMP3, 80 min 37° C. How it is done: The reaction volume was 50 μL. […] Reactivity of residual MMP3 towards P-126 substrate was minimal under these conditions.

For assay [2], the target named is proMMP13(1-268) (SEQ ID NO:7) (Homo sapiens, UniProt P45452). The assay is described as follows: ThermoFluor binding assay with proMMP13(1-268). Set-up: 6xHis (C); made in house. The settings on record: pH 7.0. The method, boiled down:
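Thermal shift binding with 3.5 μM protein and 25 μM 1,8-ANS in 50 mM HEPES pH 7.0, 100 mM NaCl, 0.001% Tween-20, 2.5 mM MgCl2, 300 μM CaCl2. Samples were heated 40 to 90 °C at 1 °C/min, fluorescence read at 500 nm. Tm shifts across an 11-point DMSO dilution series were fitted with DSC-derived thermodynamic parameters.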
In general terms: DSF heats the sample and reads unfolding from a dye or from intrinsic fluorescence.

Assay [3] concerns the target T2, proMMP9(67-444;ΔFnII) (SEQ ID NO:5) (Homo sapiens, UniProt P14780, DEL216-390).
T2 construct: start methionine (N); made in house; host or cells: E. coli BL21(DE3) RIL
T2 sequence (P14780 with tags, fused parts or gaps DEL216-390): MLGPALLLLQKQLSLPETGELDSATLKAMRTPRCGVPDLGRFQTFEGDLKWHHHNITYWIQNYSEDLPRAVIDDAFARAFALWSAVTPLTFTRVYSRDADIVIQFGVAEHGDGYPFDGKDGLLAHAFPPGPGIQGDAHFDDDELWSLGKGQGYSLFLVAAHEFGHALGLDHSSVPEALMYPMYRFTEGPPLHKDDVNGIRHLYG
Put plainly: ThermoFluor binding assay with proMMP9(67-444;ΔFnII). The settings on record: pH 7.0. The method, boiled down: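 Thermal shift binding with 3.5 μM proMMP9(67-444;ΔFnII) and 50 μM 1,8-ANS in 50 mM HEPES pH 7.0, 100 mM NaCl, 2.5 mM MgCl2, 300 μM CaCl2, 0.001% Tween-20, with serially diluted compound. Heated 40 to 90° C at 1° C/min; fluorescence-derived Tm fitted using DSC/ThermoFluor thermodynamic parameters.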

In assay [4] the target is T3, proMMP9(20-445;ΔFnII) (SEQ ID NO:6) (Homo sapiens, UniProt P14780, DEL216-390).
T3 construct: start methionine (N); made in house; host or cells: E. coli BL21(DE3) RIL
T3 sequence (P14780 with tags, fused parts or gaps DEL216-390): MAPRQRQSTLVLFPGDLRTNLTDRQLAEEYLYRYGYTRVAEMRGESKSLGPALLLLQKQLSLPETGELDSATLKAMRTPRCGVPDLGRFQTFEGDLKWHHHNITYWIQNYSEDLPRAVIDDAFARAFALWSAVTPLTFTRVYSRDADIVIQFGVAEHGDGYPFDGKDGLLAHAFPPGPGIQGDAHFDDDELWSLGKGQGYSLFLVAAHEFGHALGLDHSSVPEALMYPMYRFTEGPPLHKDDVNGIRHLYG
The assay is described as follows: ThermoFluor binding assay with proMMP9(20-445;ΔFnII). The settings on record: pH 7.0. In a few lines: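 proMMP9(20-445;ΔFnII) at 2.8 μM with 50 μM 1,8-ANS in 50 mM HEPES pH 7.0, 100 mM NaCl, 0.001% Tween-20, 2.5 mM MgCl2, 300 μM CaCl2; compounds serially diluted in DMSO. Heated 40–90 °C at 1 °C/min, fluorescence read at 500±25 nm. Tm fit by standard equations; binding fit using DSC/TF-derived thermodynamic parameters.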

pIC50, pKd: −log10 of the molar value. Where a name gives a salt, the structure may show the parent alone. Bounds are passed on as bounds.

T1 sequence (P14780 20-707 R574P): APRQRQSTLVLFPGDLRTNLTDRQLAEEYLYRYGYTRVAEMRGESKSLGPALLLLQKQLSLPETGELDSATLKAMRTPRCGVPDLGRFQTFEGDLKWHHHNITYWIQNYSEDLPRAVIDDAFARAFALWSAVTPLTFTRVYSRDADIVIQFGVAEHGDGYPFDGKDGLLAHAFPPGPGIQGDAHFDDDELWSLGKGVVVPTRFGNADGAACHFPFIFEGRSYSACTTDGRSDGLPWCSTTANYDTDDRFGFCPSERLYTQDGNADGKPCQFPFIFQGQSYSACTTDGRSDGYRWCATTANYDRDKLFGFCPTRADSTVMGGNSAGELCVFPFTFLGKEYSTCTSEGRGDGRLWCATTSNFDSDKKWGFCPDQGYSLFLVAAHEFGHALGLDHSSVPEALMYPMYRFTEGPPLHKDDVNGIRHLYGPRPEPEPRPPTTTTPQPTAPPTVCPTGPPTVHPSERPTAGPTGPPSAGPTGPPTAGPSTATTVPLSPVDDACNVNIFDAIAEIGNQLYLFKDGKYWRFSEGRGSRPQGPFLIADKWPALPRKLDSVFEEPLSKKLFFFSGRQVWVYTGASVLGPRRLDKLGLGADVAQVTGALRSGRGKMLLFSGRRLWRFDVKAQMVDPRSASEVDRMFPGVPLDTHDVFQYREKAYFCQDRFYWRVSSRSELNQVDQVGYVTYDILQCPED

For orientation: pIC50 means the negative decadic logarithm of the IC50, by convention in mol/L. A lower pIC50 goes with a large IC50. Usually pKd stands for the Kd on a negative log10 scale, so that one unit is a factor of ten. With `COc1ccc(C(N)=O)cc1Nc1nc(-c2sc(NC(C)=O)nc2C)cs1` [Example 85, 3-(2′-Acetylamino-4′-methyl-[4,5′]bithiazolyl-2-ylamino)-4-methoxy-benzamide.HBr], the negative logarithm of the IC50 (pIC50) in assay [1] is 6.57. Besides, the negative logarithm of the Kd (pKd) in assay [2] is 4.37; in assay [3], 6.12; in assay [4] it was 5.46.
In assay [1], `COC(=O)c1ccc(OC)c(Nc2nc(-c3sc(N)nc3C)cs2)c1` [Example 86, 3-(2′-Amino-4′-methyl-[4,5′]bithiazolyl-2-ylamino)-4-methoxy-benzoic acid methyl ester TFA] gave a pIC50 of 6.21. The negative-log Kd (pKd) in assay [2] is 5.47; in assay [3], 6.70; in assay [4], 5.92.
`COc1ccc(C(N)=O)cc1Nc1nc(-c2sc(N)nc2C(F)(F)F)cs1` [Example 87, 3-(2′-Amino-4′-trifluoromethyl-[4,5′]bithiazolyl-2-ylamino)-4-methoxy-benzamide.TFA] gave a negative logarithm of the IC50 (pIC50) in assay [1] of 5.92. Also, the values for the pKd in assay [2], in assay [3] and in assay [4] were 5.52, 6.42 and 6.40, respectively.
On the same counts, the results for `Cc1nc(N(C)C)sc1-c1csc(Nc2cc(C(N)=O)ccc2OC(C)C)n1` [Example 88, 3-(2′-Dimethylamino-4′-methyl-[4,5′]bithiazolyl-2-ylamino)-4-isopropoxy-benzamide.TFA] are 6.42, 6.02, 6.19 and 7.00.
On the same counts, the results for `Cc1nc(N2CCOCC2)sc1-c1csc(Nc2cc(C(N)=O)ccc2OC(C)C)n1` [Example 89, 4-Isopropoxy-3-(4′-methyl-2′-morpholin-4-yl-[4,5′]bithiazolyl-2-ylamino)-benzamide.TFA] are 6.48, 6.15, 6.41 and 7.20.
Take `Cc1nc(N2CCN(C)CC2)sc1-c1csc(Nc2cc(C(N)=O)ccc2OC(C)C)n1` [Example 90, 4-Isopropoxy-3-[4′-methyl-2′-(4-methyl-piperazin-1-yl)-[4,5′]bithiazolyl-2-ylamino]-benzamide.TFA]: the pIC50 in assay [1] was 7.00. Also, the results for the negative-log Kd (pKd) in assay [2], in assay [3] and in assay [4] were 6.17, 6.77 and 7.43, respectively.
The molecule `CCN(CC)c1nc(C)c(-c2csc(Nc3cc(C(N)=O)ccc3OC(C)C)n2)s1` [Example 94, 3-(2′-Diethylamino-4′-methyl-[4,5′]bithiazolyl-2-ylamino)-4-isopropoxy-benzamide.TFA] showed a negative logarithm of the IC50 (pIC50) in assay [1] of 6.40. For the same molecule, the pKd in assay [2] is 5.21; in assay [3], 5.77; in assay [4], 6.51.
On the same counts, the results for `Cc1nc(Nc2cccnc2)sc1-c1csc(Nc2cc(C(N)=O)ccc2OC(C)C)n1` [Example 95, 4-Isopropoxy-3-[4′-methyl-2′-(pyridin-3-ylamino)-[4,5′]bithiazolyl-2-ylamino]-benzamide.TFA] are 6.39, 5.39, 5.55 and 6.66.
In assay [1], `Cc1nc(Nc2ccccn2)sc1-c1csc(Nc2cc(C(N)=O)ccc2OC(C)C)n1` [Example 96, 4-Isopropoxy-3-[4′-methyl-2′-(pyridin-2-ylamino)-[4,5′]bithiazolyl-2-ylamino]-benzamide.TFA] showed a pIC50 of approximately 5.30. In addition, the pKd in assay [2] was 4.80; in assay [3], 5.42; in assay [4], 6.55.
On the same counts, the results for `Cc1nc(-c2ccncc2)sc1-c1csc(Nc2cc(C(N)=O)ccc2OC(C)C)n1` [Example 98, 4-Isopropoxy-3-(4′-methyl-2′-pyridin-4-yl-[4,5′]bithiazolyl-2-ylamino)-benzamide.TFA] are 6.21, 5.64, 6.17 and less than 4.02.
The like results for `CCOC(=O)c1nc(C)c(-c2csc(Nc3cc(C(N)=O)ccc3OC(C)C)n2)s1` [Example 99, 2-(5-carbamoyl-2-isopropoxy-phenylamino)-4′-methyl-[4,5′]bithiazolyl-2′-carboxylic acid ethyl esterHBr] were, in that order, 6.23, 5.62, 5.96 and 6.57.
On the same counts, the results for `Cc1nc(C(=O)O)sc1-c1csc(Nc2cc(C(N)=O)ccc2OC(C)C)n1` [Example 100, 2-(5-Carbamoyl-2-isopropoxy-phenylamino)-4′-methyl-[4,5′]bithiazolyl-2′-carboxylic acid] are 6.66, 5.85, 6.49 and 6.12.
With `Cc1nc(C(=O)N2CCN(C)CC2)sc1-c1csc(Nc2cc(C(N)=O)ccc2OC(C)C)n1` [Example 101, 4-Isopropoxy-3-[4′-methyl-2′-(4-methyl-piperazine-1-carbonyl)-[4,5′]bithiazolyl-2-ylamino]-benzamide.TFA], the pIC50 in assay [1] is 6.77. The negative-log Kd (pKd) was 6.29 in assay [2], 5.96 in assay [3] and 6.54 in assay [4].
The like results for `CCN1CCN(C(=O)c2nc(C)c(-c3csc(Nc4cc(C(N)=O)ccc4OC(C)C)n3)s2)CC1` [Example 102, 3-[2′-(4-Ethyl-piperazine-1-carbonyl)-4′-methyl-[4,5′]bithiazolyl-2-ylamino]-4-isopropoxy-benzamide.TFA] were, in that order, 6.89, 6.18, 6.14 and 6.15.
On the same counts, the results for `Cc1nc(C(=O)N2CCN(C(C)C)CC2)sc1-c1csc(Nc2cc(C(N)=O)ccc2OC(C)C)n1` [Example 103, 4-Isopropoxy-3-[2′-(4-isopropyl-piperazine-1-carbonyl)-4′-methyl-[4,5]bithiazolyl-2-ylamino]-benzamide.TFA] are 7.01, 6.35, 6.00 and 6.32.
On the same counts, the results for `Cc1nc(C(=O)N2CCCN(C)CC2)sc1-c1csc(Nc2cc(C(N)=O)ccc2OC(C)C)n1` [Example 104, 4-Isopropoxy-3-[4′-methyl-2′-(4-methyl-[1,4]diazepane-1-carbonyl)-[4,5′]bithiazolyl-2-ylamino]-benzamide.TFA] are 6.89, 6.28, 6.21 and 6.34.
With `Cc1nc(C(=O)N(C)C)sc1-c1csc(Nc2cc(C(N)=O)ccc2OC(C)C)n1` [Example 106, 2-(5-Carbamoyl-2-isopropoxy-phenylamino)-4′-methyl-[4,5′]bithiazolyl-2′-carboxylic acid dimethylamide.TFA], the negative-log IC50 (pIC50) in assay [1] was 6.04. Also, the pKd was 5.66 in assay [2], 6.30 in assay [3] and 5.92 in assay [4].
On the same counts, the results for `Cc1nc(C(=O)N(C)CCN(C)C)sc1-c1csc(Nc2cc(C(N)=O)ccc2OC(C)C)n1` [Example 107, 2-(5-Carbamoyl-2-isopropoxy-phenylamino)-4′-methyl-[4,5′]bithiazolyl-2′-carboxylic acid (2-dimethylamino-ethyl)-methyl-amide.TFA] are 6.82, 6.27, 6.28 and 6.70.
On the same counts, the results for `Cc1nc(C(=O)N2CCN(C3CCCCC3)CC2)sc1-c1csc(Nc2cc(C(N)=O)ccc2OC(C)C)n1` [Example 108, 3-[2′-(4-Cyclohexyl-piperazine-1-carbonyl)-4′-methyl-[4,5′]bithiazolyl-2-ylamino]-4-isopropoxy-benzamide.TFA] are 5.77, 6.49, less than 4.02 and 6.51.

The record behind these values is patent publication US20120129842A1, “BISTHIAZOLE INHIBITORS OF PRO-MATRIX METALLOPROTEINASE ACTIVATION” (priority 2010, published 2012).
